Values quoted from earlier work as cited in article PMC8513935.

Assays:
[1] = log P octanol/water from commercial databases, averaged (the ESI); conditions: Octanol (wet), 25 C
[2] = experimental, compiled by the authors from the literature (the ESI cites the sources)
[3] = derived by the authors as gas->solvent minus gas->water (a hypothetical dry solvent; the ESI), not a two-phase measurement

SMILES	log K of transfer, water to solvent [1]	log K of transfer, gas to solvent ([2]; 1,2-Dichloroethane, 25 C)	log K of transfer, gas to solvent ([2]; Benzene, 25 C)	log K of transfer, gas to solvent ([2]; CCl4, 25 C)	log K of transfer, gas to solvent ([2]; Chlorobenzene, 25 C)	log K of transfer, gas to solvent ([2]; Chloroform, 25 C)	log K of transfer, gas to solvent ([2]; Cyclohexane, 25 C)	log K of transfer, gas to solvent ([2]; Hexadecane, 25 C)	log K of transfer, gas to solvent ([2]; Hexan-1-ol, 25 C)	log K of transfer, gas to solvent ([2]; Hexane, 25 C)	log K of transfer, gas to solvent ([2]; Methanol, 25 C)	log K of transfer, gas to solvent ([2]; Toluene, 25 C)	log K of transfer, gas to solvent ([2]; Water, 25 C)	log K of transfer, water to solvent ([3]; 1,2-Dichloroethane, 25 C)	log K of transfer, water to solvent ([3]; Benzene, 25 C)	log K of transfer, water to solvent ([3]; CCl4, 25 C)	log K of transfer, water to solvent ([3]; Chlorobenzene, 25 C)	log K of transfer, water to solvent ([3]; Chloroform, 25 C)	log K of transfer, water to solvent ([3]; Cyclohexane, 25 C)	log K of transfer, water to solvent ([3]; Hexadecane, 25 C)	also measured
CCCCCO	1.51 log10 K	4.07 log10 K	3.74 log10 K	3.75 log10 K	3.85 log10 K	4.4 log10 K	2.94 log10 K	3.1 log10 K	4.9 log10 K	3.39 log10 K	4.93 log10 K	3.79 log10 K	3.35 log10 K	0.72 log10 K	0.39 log10 K	0.4 log10 K	0.5 log10 K	1.05 log10 K	-0.411 log10 K	-0.244 log10 K	log K of transfer, gas to solvent ([2]; 2-Methylpropan-1-ol, 25 C): 5.02 log10 K; log K of transfer, gas to solvent ([2]; 2-Methylpropan-2-ol, 25 C): 5.1 log10 K; log K of transfer, gas to solvent ([2]; Butan-1-ol, 25 C): 4.96 log10 K; log K of transfer, gas to solvent ([2]; Decan-1-ol, 25 C): 4.68 log10 K; log K of transfer, gas to solvent ([2]; Octan-1-ol, 25 C): 4.69 log10 K; log K of transfer, gas to solvent ([2]; Pentan-1-ol, 25 C): 4.95 log10 K; log K of transfer, gas to solvent ([2]; Propan-1-ol, 25 C): 4.97 log10 K; log K of transfer, gas to solvent ([2]; Propan-2-ol, 25 C): 5.01 log10 K; log K of transfer, water to solvent ([3]; 2-Methylpropan-1-ol, 25 C): 1.67 log10 K; log K of transfer, water to solvent ([3]; 2-Methylpropan-2-ol, 25 C): 1.75 log10 K; log K of transfer, water to solvent ([3]; Butan-1-ol, 25 C): 1.61 log10 K; log K of transfer, water to solvent ([3]; Decan-1-ol, 25 C): 1.33 log10 K; log K of transfer, water to solvent ([3]; Hexan-1-ol, 25 C): 1.55 log10 K; log K of transfer, water to solvent ([3]; Hexane, 25 C): 0.037 log10 K; log K of transfer, water to solvent ([3]; Methanol, 25 C): 1.58 log10 K; log K of transfer, water to solvent ([3]; Octan-1-ol(dry), 25 C): 1.34 log10 K; log K of transfer, water to solvent ([3]; Pentan-1-ol, 25 C): 1.6 log10 K; log K of transfer, water to solvent ([3]; Propan-1-ol, 25 C): 1.62 log10 K; log K of transfer, water to solvent ([3]; Propan-2-ol, 25 C): 1.66 log10 K; log K of transfer, water to solvent ([3]; Toluene, 25 C): 0.44 log10 K
CCCCCCCO	2.62 log10 K	4.98 log10 K	5.02 log10 K	4.66 log10 K	4.95 log10 K	5.5 log10 K	4.18 log10 K	4.11 log10 K	5.92 log10 K	4.1 log10 K	5.57 log10 K	4.95 log10 K	3.09 log10 K	1.89 log10 K	1.93 log10 K	1.57 log10 K	1.86 log10 K	2.41 log10 K	1.09 log10 K	1.02 log10 K	log K of transfer, gas to solvent ([2]; Butyronitrile, 25 C): 5.33 log10 K; log K of transfer, gas to solvent ([2]; Heptan-1-ol, 25 C): 5.8 log10 K; log K of transfer, water to solvent ([3]; Butyronitrile, 25 C): 2.24 log10 K; log K of transfer, water to solvent ([3]; Heptan-1-ol, 25 C): 2.71 log10 K; log K of transfer, water to solvent ([3]; Hexan-1-ol, 25 C): 2.83 log10 K; log K of transfer, water to solvent ([3]; Hexane, 25 C): 1.01 log10 K; log K of transfer, water to solvent ([3]; Methanol, 25 C): 2.48 log10 K; log K of transfer, water to solvent ([3]; Toluene, 25 C): 1.86 log10 K
